# pEC50, pIC50: −log10 of the molar value.
# What was measured:
# [1] = biological target: IRAK4 (Homo sapiens (Human), UniProt Q9NWZ3); test: IRAK4 Inhibition Assay; type: biochemical; conditions: ATP 500 μM; IRAK4 0.6 nM
# Procedure, shortened: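 Readout: electrophoretic (LabChip) separation of fluorescent peptide substrate from phosphorylated product after EDTA quench. Reactions ran 60 min at room temperature with 0.6 nM IRAK4, 1.5 μM peptide and 500 μM ATP; inhibition referenced to no-enzyme (100%) and vehicle (0%) controls.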
# [2] = test system: Human whole blood stimulated with a TLR2 agonist (lipoteichoic acid), IL-6 levels; test: IRAK4 Whole Blood Assay; type: cell-based; conditions: Homo sapiens, lipoteichoic acid 10 μg/mL
# Procedure, shortened: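 IL-6 was quantified by cytometric bead assay in supernatants of human blood (ACD-A) stimulated for 5 h with lipoteichoic acid at 10 μg/mL final. Compound exposure preceded stimulation for 60 min at 37 °C, 5% CO2.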
# [3] = Caco-2 Permeability Assay; type: in vitro ADME; conditions: human, Caco-2, test compound 3 μM
# Procedure, shortened: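 Bidirectional permeability measured over 2 h at 37° C, compound dosed at 3 μM in the donor compartment (apical for absorptive, basolateral for secretive) with plain buffer as receiver.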
# IRAK4, sequence (Q9NWZ3 whole entry, species assumed): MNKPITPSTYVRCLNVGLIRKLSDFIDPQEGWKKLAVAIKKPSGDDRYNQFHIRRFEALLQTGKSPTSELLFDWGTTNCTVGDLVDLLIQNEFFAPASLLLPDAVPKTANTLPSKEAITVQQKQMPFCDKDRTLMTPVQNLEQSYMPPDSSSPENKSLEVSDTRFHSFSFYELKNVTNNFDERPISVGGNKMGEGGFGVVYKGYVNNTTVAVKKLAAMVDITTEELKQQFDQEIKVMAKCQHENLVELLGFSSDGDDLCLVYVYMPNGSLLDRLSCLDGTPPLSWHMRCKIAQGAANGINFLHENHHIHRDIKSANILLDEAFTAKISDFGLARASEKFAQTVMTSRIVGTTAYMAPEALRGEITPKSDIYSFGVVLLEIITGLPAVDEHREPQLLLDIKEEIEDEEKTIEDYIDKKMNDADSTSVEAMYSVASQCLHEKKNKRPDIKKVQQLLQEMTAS
pIC50 [1],pEC50 [2],"Papp at 2 h, 3 µM [3] [×10⁻⁶ cm/s]",Compound
8.52,6.82,< 1.5,"CC(C)Nc1cc(-n2ncc3cc(C#N)cnc32)ncc1-c1cn(CC(=O)N2CCNCC2)nn1 [Example 192, 1-(4-(isopropylamino)-5-(1-(2-oxo-2-(piperazin-1-yl)ethyl)-1H-1,2,3-triazol-4-yl)pyridin-2-yl)-1H-pyrazolo[3,4-b]pyridine-5-carbonitrile]"
8.70,6.35,< 1.5,"CC(C)Nc1cc(-n2ncc3cc(C#N)cnc32)ncc1-c1cn(C2CCNCC2)nn1 [Example 195, 1-(4-(isopropylamino)-5-(1-(piperidin-4-yl)-1H-1,2,3-triazol-4-yl)pyridin-2-yl)-1H-pyrazolo [3,4-b]pyridine-5-carbonitrile]"
8.40,5.92,4.7,"CC(C)Nc1cc(-n2ncc3cc(C#N)cnc32)ncc1-c1cn(C2CCN(S(C)(=O)=O)CC2)nn1 [Example 196, 1-(4-(isopropylamino)-5-(1-(1-(methylsulfonyl)piperidin-4-yl)-1H-1,2,3-triazol-4-yl)pyridin-2-yl)-1H-pyrazolo[3,4-b]pyridine-5-carbonitrile]"
8.30,5.76,19.3,"CC(C)Nc1cc(-n2ncc3cc(C#N)cnc32)ncc1-c1cn(C(C)C)nn1 [Example 213, 1-(5-(1-isopropyl-1H-1,2,3-triazol-4-yl)-4-(isopropylamino)pyridin-2-yl)-1H-pyrazolo[3,4-b]pyridine-5-carbonitrile]"
8.15,6.04,13.6,"CC(C)Nc1cc(-n2ncc3cc(C#N)cnc32)ncc1-c1cn(C2CCOC2)nn1 (stereo not drawn) [Example 214, 1-(4-(isopropylamino)-5-(1-(tetrahydrofuran-3-yl)-1H-1,2,3-triazol-4-yl)pyridin-2-yl)-1H-pyrazolo[3,4-b]pyridine-5-carbonitrile]"
8.70,5.78,7.3,"CC(C)Nc1cc(-n2ncc3cc(C#N)cnc32)ncc1-c1cn([C@H]2CCCC[C@H]2O)nn1 [Example 216, 1-(5-(1-((1S,2R)-2-hydroxycyclohexyl)-1H-1,2,3-triazol-4-yl)-4-(isopropylamino)pyridin-2-yl)-1H-pyrazolo[3,4-b]pyridine-5-carbonitrile]"
7.82,6.48,7.8,"CCCc1cn(-c2cnc(-n3ncc4cc(C#N)cnc43)cc2NC(C)C)nn1 [Example 263, 1-(4-(isopropylamino)-5-(4-propyl-1H-1,2,3-triazol-1-yl)pyridin-2-yl)-1H-pyrazolo[3,4-b]pyridine-5-carbonitrile]"
7.96,6.62,4.4,"CC(C)Nc1cc(-n2ncc3cc(C#N)cnc32)ncc1-n1cc(CCCO)nn1 [Example 296, 1-(5-(4-(3-hydroxypropyl)-1H-1,2,3-triazol-1-yl)-4-(isopropylamino)pyridin-2-yl)-1H-pyrazolo[3,4-b]pyridine-5-carbonitrile]"
8.22,6.92,6.4,"CC(C)Nc1cc(-n2ncc3cc(C#N)cnc32)ncc1-n1cc(CCCCO)nn1 [Example 311, 1-(5-(4-(4-hydroxybutyl)-1H-1,2,3-triazol-1-yl)-4-(isopropylamino)pyridin-2-yl)-1H-pyrazolo [3,4-b]pyridine-5-carbonitrile]"
7.60,6.10,10.8,"CCC(C)(O)Cc1cn(-c2cnc(-n3ncc4cc(C#N)cnc43)cc2NC(C)C)nn1 (stereo not drawn) [Example 318, 1-(5-(4-(2-hydroxy-2-methylbutyl)-1H-1,2,3-triazol-1-yl)-4-(isopropylamino)pyridin-2-yl)-1H-pyrazolo[3,4-b]pyridine-5-carbonitrile]"
8.52,6.70,7.4,"CC(C)Nc1cc(-n2ncc3cc(C#N)cnc32)ncc1-n1cc(CCC(C)(C)O)nn1 [Example 327, 1-(5-(4-(3-hydroxy-3-methylbutyl)-1H-1,2,3-triazol-1-yl)-4-(isopropylamino)pyridin-2-yl)-1H-pyrazolo[3,4-b]pyridine-5-carbonitrile]"
8.00,5.59,9.2,"CC(=O)Cc1cn(-c2cnc(-n3ncc4cc(C#N)cnc43)cc2NC(C)C)nn1 [Example 331, 1-(4-(isopropylamino)-5-(4-(2-oxopropyl)-1H-1,2,3-triazol-1-yl)pyridin-2-yl)-1H-pyrazolo[3,4-b]pyridine-5-carbonitrile]"
8.70,7.15,< 1.5,"CC(C)Nc1cc(-n2ncc3cc(C#N)cnc32)ncc1-n1cc(C2CCNCC2)nn1 [Example 334, 1-(4-(isopropylamino)-5-(4-(piperidin-4-yl)-1H-1,2,3-triazol-1-yl)pyridin-2-yl)-1H-pyrazolo[3,4-b]pyridine-5-carbonitrile]"
8.15,6.66,25,"CC(C)Nc1cc(-n2ncc3cc(C#N)cnc32)ncc1-n1cc(C2CCN(CC(F)F)CC2)nn1 [Example 336, 1-(5-(4-(1-(2,2-difluoroethyl)piperidin-4-yl)-1H-1,2,3-triazol-1-yl)-4-(isopropylamino)pyridin-2-yl)-1H-pyrazolo[3,4-b]pyridine-5-carbonitrile]"
8.22,6.55,< 1.5,"CC(C)Nc1cc(-n2ncc3cc(C#N)cnc32)ncc1-n1cc(C2CCN(C(C)C)CC2)nn1 [Example 337, 1-(4-(isopropylamino)-5-(4-(1-isopropylpiperidin-4-yl)-1H-1,2,3-triazol-1-yl)pyridin-2-yl)-1H-pyrazolo[3,4-b]pyridine-5-carbonitrile]"

# Second part, the compound before the results:
Compound,pIC50 [1],pEC50 [2],"Papp at 2 h, 3 µM [3] [×10⁻⁶ cm/s]"
"CC(C)Nc1cc(-n2ncc3cc(C#N)cnc32)ncc1-c1cn([C@H]2CCN(S(C)(=O)=O)C[C@H]2O)nn1 [Example 181, 1-(5-(1-((3R,4S)-3-hydroxy-1-(methylsulfonyl)piperidin-4-yl)-1H-1,2,3-triazol-4-yl)-4-(isopropylamino)pyridin-2-yl)-1H-pyrazolo[3,4-b]pyridine-5-carbonitrile]",8.15,6.40,< 1.5
"CC(C)Nc1cc(-n2ncc3cc(C#N)cnc32)ncc1-c1cn([C@@H]2CCN(S(C)(=O)=O)C[C@@H]2O)nn1 [Example 188, 1-(5-(1-((3S,4R)-3-hydroxy-1-(methylsulfonyl)piperidin-4-yl)-1H-1,2,3-triazol-4-yl)-4-(isopropylamino)pyridin-2-yl)-1H-pyrazolo[3,4-b]pyridine-5-carbonitrile]",7.74,6.96,< 1.5
"CC(=O)N1CC[C@@H](n2cc(-c3cnc(-n4ncc5cc(C#N)cnc54)cc3NC(C)C)nn2)[C@@H](O)C1 [Example 191, 1-(5-(1-((3S,4R)-1-acetyl-3-hydroxypiperidin-4-yl)-1H-1,2,3-triazol-4-yl)-4-(isopropylamino)pyridin-2-yl)-1H-pyrazolo[3,4-b]pyridine-5-carbonitrile]",7.80,6.41,< 1.5
"CCCn1cc(-c2cnc(-n3ncc4cc(Cl)cnc43)cc2NC(C)C)nn1 [Example 218, 2-(5-chloro-1H-pyrazolo[3,4-b]pyridin-1-yl)-N-isopropyl-5-(1-propyl-1H-1,2,3-triazol-4-yl)pyridin-4-amine]",8.05,5.68,12.5
CCCn1cnc(-c2cnc(-n3ncc4cc(C#N)cnc43)cc2NC(C)C)c1 [Example 219],8.00,5.83,31.8
"CC(C)Nc1cc(-n2ncc3cc(C#N)cnc32)ncc1-c1cn(CCC(C)(C)O)cn1 [Example 240, 1-(5-(1-(3-hydroxy-3-methylbutyl)-1H-imidazol-4-yl)-4-(isopropylamino)pyridin-2-yl)-1H-pyrazolo[3,4-b]pyridine-5-carbonitrile]",8.52,6.13,5.7
"CC(O)Cc1cn(-c2cnc(-n3ncc4cc(C#N)cnc43)cc2NCC(C)(C)O)nn1 (stereo not drawn) [Example 264, 1-(4-((2-hydroxy-2-methylpropyl)amino)-5-(4-(2-hydroxypropyl)-1H-1,2,3-triazol-1-yl)pyridin-2-yl)-1H-pyrazolo[3,4-b]pyridine-5-carbonitrile]",8.10,6.48,22.5
"CCCc1cn(-c2cnc(-n3ncc4cc(C#N)cnc43)cc2Nc2cnn(CC(F)F)c2)nn1 [Example 269, 1-(4-((1-(2,2-difluoroethyl)-1H-pyrazol-4-yl)amino)-5-(4-propyl-1H-1,2,3-triazol-1-yl)pyridin-2-yl)-1H-pyrazolo[3,4-b]pyridine-5-carbonitrile]",8.40,6.41,3.8
"CCCc1cn(-c2cnc(-n3ncc4cncnc43)cc2Nc2cnn(CC(F)F)c2)nn1 [Example 270, N-(1-(2,2-difluoroethyl)-1H-pyrazol-4-yl)-5-(4-propyl-1H-1,2,3-triazol-1-yl)-2-(1H-pyrazolo[3,4-d]pyrimidin-1-yl)pyridin-4-amine]",8.22,5.93,37.2
"CCCc1cn(-c2cnc(-n3ncc4cc(C#N)c(N)nc43)cc2NC(C)C)nn1 [Example 280, 6-amino-1-(4-(isopropylamino)-5-(4-propyl-1H-1,2,3-triazol-1-yl)pyridin-2-yl)-1H-pyrazolo[3,4-b]pyridine-5-carbonitrile]",8.52,6.64,27.6
